Results: patent US5502036A, “Antiherpes pentapeptide derivatives having a substituted aspartic acid side chain” (priority 1989, dated 1996)
Where a SMILES comes first, the peptide text is derived from it. [ ]: non-standard residue; d: D form. The star is where a group is joined. Gly(1-COOH-cBu) = N[C@H](C(=O)O)C1(C(=O)O)CCC1; Hydrocinnamoyl = O=C(CCc1ccccc1)*; Pentanoyl(4-Me) = CC(C)CCC(=O)*; O(2S-octyl) = CCCCCC[C@H](C)O*; NHPhenethyl = c1ccc(CCN*)cc1; Tle = CC(C)(C)[C@H](N)C(=O)O; NMeV = CN[C@H](C(=O)O)C(C)C; Pyrrolidide = C1CCN(*)C1; NHIsopentyl = CC(C)CCN*; Boc = CC(C)(C)OC(=O)*; X6 = CC(C)C[C@H](C)N*; X2 = CCCCCCCCCCCCO*; X4 = CCCCCCCCN(C)*

The compounds below were run against T1, HSV-1 ribonucleotide reductase (partially purified) (Human herpesvirus 1, UniProt P08543) (assay: biochemical). Settings: not given.
T1 construct: obtained from quiescent BHK-21/C13 cells infected with strain F HSV-1 virus; endogenous in cells; host or cells: quiescent BHK-21/C13 cells infected with HSV-1 strain F; enzyme partially purified (Cohen et al., J. Gen. Virol. 66, 733 (1985))
Assay type: biochemical
From the text: b) Assay and Results for Exemplified Peptides

T1 sequence (P08543 whole entry): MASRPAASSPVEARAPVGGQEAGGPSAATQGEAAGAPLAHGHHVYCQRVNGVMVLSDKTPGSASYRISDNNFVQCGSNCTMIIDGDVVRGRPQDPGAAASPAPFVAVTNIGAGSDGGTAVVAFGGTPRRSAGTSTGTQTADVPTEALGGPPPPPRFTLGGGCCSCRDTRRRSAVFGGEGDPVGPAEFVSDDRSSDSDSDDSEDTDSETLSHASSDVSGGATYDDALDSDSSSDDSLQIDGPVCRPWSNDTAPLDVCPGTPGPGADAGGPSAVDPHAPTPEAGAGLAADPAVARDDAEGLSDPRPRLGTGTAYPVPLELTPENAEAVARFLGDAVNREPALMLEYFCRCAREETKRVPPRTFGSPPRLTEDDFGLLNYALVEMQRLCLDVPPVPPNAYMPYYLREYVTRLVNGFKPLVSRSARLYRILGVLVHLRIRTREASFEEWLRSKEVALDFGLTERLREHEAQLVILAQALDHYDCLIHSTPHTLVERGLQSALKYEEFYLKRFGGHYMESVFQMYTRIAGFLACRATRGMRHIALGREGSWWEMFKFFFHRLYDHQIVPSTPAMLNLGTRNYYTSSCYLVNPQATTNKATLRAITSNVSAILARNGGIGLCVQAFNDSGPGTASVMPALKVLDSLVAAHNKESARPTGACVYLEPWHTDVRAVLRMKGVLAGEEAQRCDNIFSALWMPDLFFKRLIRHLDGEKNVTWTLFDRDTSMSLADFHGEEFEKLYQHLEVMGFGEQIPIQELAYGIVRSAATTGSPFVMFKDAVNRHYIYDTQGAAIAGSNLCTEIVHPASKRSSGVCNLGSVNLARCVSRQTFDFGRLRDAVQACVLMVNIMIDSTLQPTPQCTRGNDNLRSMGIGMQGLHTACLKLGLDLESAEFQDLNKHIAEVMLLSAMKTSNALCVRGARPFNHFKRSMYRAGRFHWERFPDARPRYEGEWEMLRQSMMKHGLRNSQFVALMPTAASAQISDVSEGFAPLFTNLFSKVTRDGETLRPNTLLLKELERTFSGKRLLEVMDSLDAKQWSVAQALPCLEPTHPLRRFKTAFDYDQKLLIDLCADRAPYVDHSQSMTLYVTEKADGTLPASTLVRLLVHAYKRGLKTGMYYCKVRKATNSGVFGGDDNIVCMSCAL

SMILES | IC50 [nM]
CCCCCC[C@H](C)OC(=O)C[C@H](NC(=O)[C@@H](NC(=O)[C@H](C(C)C)N(C)C(=O)CCC(C)C)[C@@H](C)CC)C(=O)N[C@@H](CC(=O)O)C(=O)N[C@@H](CC(C)C)C(=O)O [Entry 30, 4-Methylpentanoyl-N--Me--Val--Ile--Asp 1(S)-methylheptyloxy!-Asp--Leu--OH] ({Pentanoyl(4-Me)}-[NMeV]ID(O(2S-octyl))DL-OH) | 1700
CC[C@H](C)[C@H](NC(=O)[C@H](C(C)C)N(C)C(=O)CCc1ccccc1)C(=O)N[C@@H](CC(=O)N1CCCC1)C(=O)N[C@@H](CC(=O)O)C(=O)NCCC(C)C [Entry 38, PhCH2 CH2 CO--N--Me--Val--Ile--Asp(pyrrolidino)-Asp--NHCH2 CH2 CH(CH3)2] (Hydrocinnamoyl-[NMeV]ID(Pyrrolidide)D-NHIsopentyl) | 1300
CCCCCCCCN(C)C(=O)C[C@H](NC(=O)[C@@H](NC(=O)[C@H](C(C)C)N(C)C(=O)CCc1ccccc1)[C@@H](C)CC)C(=O)N[C@@H](CC(=O)O)C(=O)N[C@@H](CC(C)C)C(=O)O [Entry 32, PhCH2 CH2 CO--N--Me--Val--Ile--Asp NMe(octyl)!-Asp--Leu--OH] (Hydrocinnamoyl-[NMeV]ID(X4)DL-OH) | 260
CCCCCCCCCCCCOC(=O)C[C@H](NC(=O)[C@@H](NC(=O)[C@H](C(C)C)N(C)C(=O)CCc1ccccc1)[C@@H](C)CC)C(=O)N[C@@H](CC(=O)O)C(=O)N[C@@H](CC(C)C)C(=O)O [Entry 29, PhCH2 CH2 CO--N--Me--Val--Ile--Asp(dodecyloxy)-Asp--Leu--OH] (Hydrocinnamoyl-[NMeV]ID(X2)DL-OH) | 4200
CCCCCC[C@H](C)OC(=O)C[C@H](NC(=O)[C@@H](NC(=O)[C@H](C(C)C)N(C)C(=O)CCc1ccccc1)[C@@H](C)CC)C(=O)N[C@@H](CC(=O)O)C(=O)N[C@@H](CC(C)C)C(=O)OC [Entry 37, PhCH2 CH2 CO--N--Me--Val--Ile--Asp 1(S)-methylheptyloxy!-Asp--Leu--OCH3] (Hydrocinnamoyl-[NMeV]ID(O(2S-octyl))DL-OMe) | 2000
CC(C)C[C@H](NC(=O)[C@@H](NC(=O)[C@H](CC(=O)N1CCCC1)NC(=O)[C@@H](NC(=O)[C@H](C(C)C)N(C)C(=O)CCc1ccccc1)C(C)(C)C)C1(C(=O)O)CCC1)C(=O)O [Entry 33, PhCH2 CH2 CO--N--Me--Val--Tbg--Asp(pyrrolidino)-Asp(cyBu)-Leu--OH] (Hydrocinnamoyl-[NMeV][Tle]D(Pyrrolidide)[Gly(1-COOH-cBu)]L-OH) | 60
CC[C@H](C)[C@H](NC(=O)[C@H](C(C)C)N(C)C(=O)CCc1ccccc1)C(=O)N[C@@H](CC(=O)N1CCCC1)C(=O)N[C@@H](CC(=O)O)C(=S)N[C@@H](CC(C)C)C(=O)O [Entry 40, PhCH2 CH2 CO--N--Me--Val--Ile--Asp(pyrrolidino)-.PSI. CSNH!Asp--Leu--OH] | 160
CC[C@H](C)[C@H](NC(=O)[C@H](C(C)C)N(C)C(=O)CCc1ccccc1)C(=O)N[C@@H](CC(=O)N1CCCC1)C(=O)N[C@@H](CC(=O)O)C(=O)N[C@@H](C)CC(C)C [Entry 41, PhCH2 CH2 CO--N--Me--Val--Ile--Asp(pyrrolidino)-Asp--NHCH(CH3)CH2 CH(CH3)2] (Hydrocinnamoyl-[NMeV]ID(Pyrrolidide)D-X6) | 2600
CCCCCC[C@H](C)OC(=O)C[C@H](NC(=O)[C@@H](NC(=O)[C@H](C(C)C)N(C)C(=O)CCc1ccccc1)[C@@H](C)CC)C(=O)N[C@@H](CC(=O)O)C(=O)N[C@@H](CC(C)C)C(N)=O [Entry 31, PhCH2 CH2 CO--N--Me--Val--Ile--Asp 1(S)-methylheptyloxy!-Asp--Leu--NH2] (Hydrocinnamoyl-[NMeV]ID(O(2S-octyl))DL-NH2) | 1900

Same assay, conditions: Table 4; concentration producing 50% of the maximal inhibition of enzyme activity; mean of four assays; read-out: IC50

SMILES | IC50 [nM]
CC[C@H](C)[C@H](NC(=O)[C@H](C(C)C)N(C)C(=O)OC(C)(C)C)C(=O)N[C@@H](CC(=O)NCCc1ccccc1)C(=O)N[C@@H](CC(=O)O)C(=O)N[C@@H](CC(C)C)C(=O)O [Entry 24, Boc--N--Me--Val--Ile--Asp(NHCH2 CH2 Ph)--Asp--Leu--OH] (Boc-[NMeV]ID(NHPhenethyl)DL-OH) | 1600
